Assay results from patent US12304917B1, “Pleuromutilin derivative containing a thiazolo[5,4-c]pyridine side chain, and a preparation method and application thereof” (SHAANXI UNIVERSITY OF SCIENCE AND TECHNOLOGY, priority 2024, dated 2025).
≈ marks a conversion by molar mass, not a printed value.

What was measured:
S. aureus ATCC 29213 = test: MIC by broth microdilution; conditions: Staphylococcus aureus, ATCC29213, 24 h, read-out: Minimum inhibitory concentration S.a.^d
[1] = test system: Methicillin-resistant S. aureus ATCC 43300; test: MIC by broth microdilution; conditions: Staphylococcus aureus, ATCC43300|MRSA, 24 h, read-out: Minimum inhibitory concentration MRSA^c
[2] = test system: Methicillin-resistant S. aureus ATCC 33591; test: MIC by broth microdilution; conditions: Staphylococcus aureus, ATCC33591|MRSA, 24 h, read-out: Minimum inhibitory concentration MRSA^b
physchem = conditions: thermodynamic from solid
[3] = test system: Methicillin-resistant S. epidermidis ATCC 51625; test: MIC by broth microdilution; conditions: Staphylococcus epidermidis, ATCC51625|MRSE, 24 h, read-out: Minimum inhibitory concentration MRSE^e
S. enterica ATCC14028 = test: MIC by broth microdilution; conditions: Salmonella enterica, ATCC14028, 24 h, read-out: Minimum inhibitory concentration S.e.^g
E. coli ATCC 25922 = test: MIC by broth microdilution; conditions: Escherichia coli, ATCC25922, 24 h, read-out: Minimum inhibitory concentration E.c.^h
A. baumannii ATCC 19606 = test: MIC by broth microdilution; conditions: Acinetobacter baumannii, ATCC19606, 24 h, read-out: Minimum inhibitory concentration A.b.^f
E. coli CMCC 44103 = test: MIC by broth microdilution; conditions: Escherichia coli, CMCC44103, 24 h, read-out: Minimum inhibitory concentration E.c.^i
HEK293 cells = conditions: human, 24 h
A549 cells = conditions: human, 24 h
HepG2 cells = conditions: human, 24 h

MIC (S. aureus ATCC 29213)	MIC [1]	MIC [2]	solubility (physchem)	MIC [3]	MIC (S. enterica ATCC14028)	MIC (E. coli ATCC 25922)	MIC (A. baumannii ATCC 19606)	MIC (E. coli CMCC 44103)	Structure (SMILES)	CC50 (HEK293 cells)	CC50 (A549 cells)	CC50 (HepG2 cells)
16 µg/mL	64 µg/mL	64 µg/mL	549 µM	32 µg/mL	64 µg/mL	64 µg/mL	32 µg/mL	32 µg/mL	C=C[C@]1(C)C[C@@H](OC(=O)CSc2nc3cc[n+](Cc4cc(C)cc(C)c4)cc3s2)[C@]2(C)[C@H](C)CC[C@]3(CCC(=O)[C@H]32)[C@@H](C)[C@@H]1O [Compound I-12, 5-(3,5-dimethylbenzyl)-2-((2-(((3aR,4R,5R,7S,8S,9R,9aS,12R)-8-hydroxy-4,7,9,12-tetramethyl-3-oxo-7-vinyldecahydro-4,9a-propancyclopenta[8]cyclo-5-yl)oxy)-2-oxoethyl)thio)thiazolo[5,4-c]pyridin-5-ium]			
64 µg/mL	64 µg/mL	32 µg/mL	231 µM	32 µg/mL	64 µg/mL	64 µg/mL	64 µg/mL	32 µg/mL	C=C[C@]1(C)C[C@@H](OC(=O)CSc2nc3cc[n+](Cc4cc(F)ccc4C#N)cc3s2)[C@]2(C)[C@H](C)CC[C@]3(CCC(=O)[C@H]32)[C@@H](C)[C@@H]1O [Compound I-13, 5-(2-cyano-5-fluorobenzyl)-2-((2-(((3aR,4R,5R,7S,8S,9R,9aS,12R)-8-hydroxy-4,7,9,12-tetramethyl-3-oxo-7-vinyldecahydro-4,9a-propancyclopenta[8]cyclo-5-yl)oxy)-2-oxoethyl)thio)thiazolo[5,4-c]pyridin-5-ium]			
64 µg/mL	32 µg/mL	32 µg/mL	126 µM	64 µg/mL	64 µg/mL	32 µg/mL	32 µg/mL	64 µg/mL	C=C[C@]1(C)C[C@@H](OC(=O)CSc2nc3cc[n+](Cc4cc(OC)cc(OC)c4)cc3s2)[C@]2(C)[C@H](C)CC[C@]3(CCC(=O)[C@H]32)[C@@H](C)[C@@H]1O [Compound I-14, 5-(3,5-dimethoxybenzyl)-2-((2-(((3aR,4R,5R,7S,8S,9R,9aS,12R)-8-hydroxy-4,7,9,12-tetramethyl-3-oxo-7-vinyldecahydro-4,9a-propancyclopenta[8]cyclo-5-yl)oxy)-2-oxoethyl)thio)thiazolo[5,4-c]pyridin-5-ium]			
			259 µM (≈ 128 µg/mL)						C=C[C@]1(C)C[C@@H](OC(=O)CSCCN(CC)CC)[C@]2(C)[C@H](C)CC[C@]3(CCC(=O)[C@H]32)[C@@H](C)[C@@H]1O [Tiamulin, tiamulin, reference compound]			

Continued, compound first:

Structure (SMILES)	MIC (S. aureus ATCC 29213)	MIC [1]	MIC [2]	solubility (physchem)	MIC [3]	MIC (S. enterica ATCC14028)	MIC (E. coli ATCC 25922)	MIC (A. baumannii ATCC 19606)	MIC (E. coli CMCC 44103)	CC50 (HEK293 cells)	CC50 (A549 cells)	CC50 (HepG2 cells)
C=C[C@]1(C)C[C@@H](OC(=O)CSc2nc3cc[n+](Cc4ccc(Br)cc4)cc3s2)[C@]2(C)[C@H](C)CC[C@]3(CCC(=O)[C@H]32)[C@@H](C)[C@@H]1O [Compound I-1, 5-(4-bromobenzyl)-2-((2-(((3aR,4R,5R,7S,8S,9R,9aS,12R)-8-hydroxy-4,7,9,12-tetramethyl-3-oxo-7-vinyldecahydro-4,9a-propancyclopenta[8]cyclo-5-yl)oxy)-2-oxoethyl)thio)thiazolo[5,4-c]pyridin-5-ium]	16 µg/mL	16 µg/mL	32 µg/mL	450 µM	8 µg/mL	32 µg/mL	32 µg/mL	16 µg/mL	32 µg/mL			
C=C[C@]1(C)C[C@@H](OC(=O)CSc2nc3cc[n+](Cc4ccc(C(F)(F)F)cc4)cc3s2)[C@]2(C)[C@H](C)CC[C@]3(CCC(=O)[C@H]32)[C@@H](C)[C@@H]1O [Compound I-2, 5-(4-trifluoromethyl)-2-((2-(((3aR,4R,5R,7S,8S,9R,9aS,12R)-8-hydroxy-4,7,9,12-tetramethyl-3-oxo-7-vinyldecahydro-4,9a-propancyclopenta[8]cyclo-5-yl)oxy)-2-oxoethyl)thio)thiazolo[5,4-c]pyridin-5-ium]	8 µg/mL	16 µg/mL	32 µg/mL	327 µM	16 µg/mL	8 µg/mL	8 µg/mL	32 µg/mL	16 µg/mL			
C=C[C@]1(C)C[C@@H](OC(=O)CSc2nc3cc[n+](Cc4ccc(F)cc4)cc3s2)[C@]2(C)[C@H](C)CC[C@]3(CCC(=O)[C@H]32)[C@@H](C)[C@@H]1O [Compound I-3, 5-(4-fluorobenzyl)-2-((2-(((3aR,4R,5R,7S,8S,9R,9aS,12R)-8-hydroxy-4,7,9,12-tetramethyl-3-oxo-7-vinyldecahydro-4,9a-propancyclopenta[8]cyclo-5-yl)oxy)-2-oxoethyl)thio)thiazolo[5,4-c]pyridin-5-ium]	16 µg/mL	16 µg/mL	32 µg/mL	561 µM	8 µg/mL	32 µg/mL	8 µg/mL	32 µg/mL	16 µg/mL			
C=C[C@]1(C)C[C@@H](OC(=O)CSc2nc3cc[n+](Cc4ccc(OC)cc4)cc3s2)[C@]2(C)[C@H](C)CC[C@]3(CCC(=O)[C@H]32)[C@@H](C)[C@@H]1O [Compound I-4, 5-(4-methoxybenzyl)-2-((2-(((3aR,4R,5R,7S,8S,9R,9aS,12R)-8-hydroxy-4,7,9,12-tetramethyl-3-oxo-7-vinyldecahydro-4,9a-propancyclopenta[8]cyclo-5-yl)oxy)-2-oxoethyl)thio)thiazolo[5,4-c]pyridin-5-ium]	16 µg/mL	8 µg/mL	32 µg/mL	247 µM	64 µg/mL	32 µg/mL	16 µg/mL	32 µg/mL	8 µg/mL			
C=C[C@]1(C)C[C@@H](OC(=O)CSc2nc3cc[n+](Cc4ccc(Cl)cc4)cc3s2)[C@]2(C)[C@H](C)CC[C@]3(CCC(=O)[C@H]32)[C@@H](C)[C@@H]1O [Compound I-5, 5-(4-chlorobenzyl)-2-((2-(((3aR,4R,5R,7S,8S,9R,9aS,12R)-8-hydroxy-4,7,9,12-tetramethyl-3-oxo-7-vinyldecahydro-4,9a-propancyclopenta[8]cyclo-5-yl)oxy)-2-oxoethyl)thio)thiazolo[5,4-c]pyridin-5-ium]	8 µg/mL	32 µg/mL	32 µg/mL	623 µM	32 µg/mL	16 µg/mL	32 µg/mL	32 µg/mL	32 µg/mL			
C=C[C@]1(C)C[C@@H](OC(=O)CSc2nc3cc[n+](Cc4cc(F)c(F)cc4F)cc3s2)[C@]2(C)[C@H](C)CC[C@]3(CCC(=O)[C@H]32)[C@@H](C)[C@@H]1O [Compound I-7, 5-(2,4,5-trifluorobenzyl)-2-((2-(((3aR,4R,5R,7S,8S,9R,9aS,12R)-8-hydroxy-4,7,9,12-tetramethyl-3-oxo-7-vinyldecahydro-4,9a-propancyclopenta[8]cyclo-5-yl)oxy)-2-oxoethyl)thio)thiazolo[5,4-c]pyridin-5-ium]	64 µg/mL	64 µg/mL	128 µg/mL	656 µM	64 µg/mL	64 µg/mL	128 µg/mL	128 µg/mL	64 µg/mL			
C=C[C@]1(C)C[C@@H](OC(=O)CSc2nc3cc[n+](Cc4ccc(-c5ccccc5)cc4)cc3s2)[C@]2(C)[C@H](C)CC[C@]3(CCC(=O)[C@H]32)[C@@H](C)[C@@H]1O [Compound I-10, 5-([1,1′-biphenyl]-4-ylmethyl)-2-((2-(((3aR,4R,5R,7S,8S,9R,9aS,12R)-8-hydroxy-4,7,9,12-tetramethyl-3-oxo-7-vinyldecahydro-4,9a-propancyclopenta[8]cyclo-5-yl)oxy)-2-oxoethyl)thio)thiazolo[5,4-c]pyridin-5-ium]	8 µg/mL	64 µg/mL	16 µg/mL	513 µM	32 µg/mL	16 µg/mL	16 µg/mL	8 µg/mL	32 µg/mL			
C=C[C@]1(C)C[C@@H](OC(=O)CSc2nc3cc[n+](Cc4ccc(C(C)(C)C)cc4)cc3s2)[C@]2(C)[C@H](C)CC[C@]3(CCC(=O)[C@H]32)[C@@H](C)[C@@H]1O [Compound I-11, 5-(4-(tert-butyl)benzyl)-2-((2-(((3aR,4R,5R,7S,8S,9R,9aS,12R)-8-hydroxy-4,7,9,12-tetramethyl-3-oxo-7-vinyldecahydro-4,9a-propancyclopenta[8]cyclo-5-yl)oxy)-2-oxoethyl)thio)thiazolo[5,4-c]pyridin-5-ium]	32 µg/mL	16 µg/mL	64 µg/mL		32 µg/mL	32 µg/mL	32 µg/mL	8 µg/mL	16 µg/mL			
C=C[C@]1(C)C[C@@H](OC(=O)CS[C@@H]2C[C@H]3CC[C@@H](C2)N3C)[C@]2(C)[C@H](C)CC[C@]3(CCC(=O)[C@H]32)[C@@H](C)[C@@H]1O [Retapamulin, retapamulin, reference compound]	4 µg/mL (≈ 7.73 µM)					128 µg/mL (≈ 247 µM)	32 µg/mL (≈ 61.8 µM)	4 µg/mL (≈ 7.73 µM)	32 µg/mL (≈ 61.8 µM)	57.5 µM	71.5 µM	61.1 µM
